Assay results taken from patent publication US5593985A, “Cephalosporin compounds” (priority 1994, dated 1997).
Values after ≈ are worked out from the molar mass of the structure shown. Where two headings read alike, the source gives them in different places.

What was measured:
[1] = tested on: Pseudomonas aeruginosa 9.027; test: MIC, standard strain 12; assay type: cell-based; conditions: Pseudomonas aeruginosa; P. aeruginosa 9.027; two-fold dilution, Muller Hinton agar, 10^7 CFU/ml, 37° C., 18 hours; read-out: Minimal Inhibitory Concentration(MIC)
Method: (§1) In order to illustrate antibiotic effectiveness of the compounds of the present invention, the minimal inhibitory concentrations (MIC's) of the representative compounds were determined against standard strains and compared with ceftazidime and cefpirome, which were used as control compounds.
(§2) The MIC values were taken by employing a two-fold dilution method: that is, two-fold serial dilutions of each of the test compounds were made from initial concentration of […]; each 1.5 ml of them was dispersed in 13.5 ml of Muller Hinton agar medium to adjust to […]; the standard test strain which had the concentration of 10^7 CFU/ml was inoculated by medium;and these were incubated at 37° C. for 18 hours.
(§3) The test used twenty kinds of standard test strains which induced urinary tract infections, respiratory organ infections, skin soft tissue infections, plasma infections, gastrointestinal infections, central nervous system infections, most of which produce β-lactamase. The standard test strains used are as follows:
12. Pseudomonas aeruginosa 9.027

[2] = tested on: Streptococcus pyogenes A 77; test: MIC, standard strain 2; assay type: cell-based; conditions: A77, S. pyogenes A 77, two-fold dilution, Muller Hinton agar, 10^7 CFU/ml, 37° C., 18 hours, read-out: Minimal Inhibitory Concentration(MIC)
Method: as §1, §2, §3
2. Streptococcus pyogenes A 77

[3] = tested on: Enterobacter cloacae 1321 E; test: MIC, standard strain 20; assay type: cell-based; conditions: E. cloacae 1321 E, two-fold dilution, Muller Hinton agar, 10^7 CFU/ml, 37° C., 18 hours, read-out: Minimal Inhibitory Concentration(MIC)
Method: as §1, §2, §3
20. Enterobacter cloacae 1321 E

acute toxicity test = conditions: in vivo, iv
Streptococcus I = test: MIC, clinically separated strains; assay type: cell-based; set-up: range of MIC: unit not given here; conditions: 20 clinical strains; for MIC50 / MIC90: Streptococcus, 18 h
Method: as §2

MRSA(Yonsei Univ.) = test: MIC, clinically separated strains; assay type: cell-based; set-up: range of MIC: unit not given here
Method: as §2

[4] = tested on: Pseudomonas aeruginosa 1771M; test: MIC, standard strain 15; assay type: cell-based; conditions: 18 h, read-out: Minimal Inhibitory Concentration(MIC)
Method: as §1, §2, §3
15. Pseudomonas aeruginosa 1771M

[5] = tested on: Staphylococcus aureus 503; test: MIC, standard strain 6; assay type: cell-based; conditions: Staphylococcus aureus; S. aureus 503; two-fold dilution, Muller Hinton agar, 10^7 CFU/ml, 37° C., 18 hours; read-out: Minimal Inhibitory Concentration(MIC)
Method: as §1, §2, §3
6. Staphylococcus aureus 503

Salmonella typhimurium = test: MIC, standard strain 16; assay type: cell-based; conditions: Salmonella enterica; S. typhimurium; two-fold dilution, Muller Hinton agar, 10^7 CFU/ml, 37° C., 18 hours; read-out: Minimal Inhibitory Concentration(MIC)
Method: as §1, §2, §3
16. Salmonella typhimurium

Escherichia coli DC 0 = test: MIC, standard strain 8; assay type: cell-based; conditions: DC0, E. coli DC 0, two-fold dilution, Muller Hinton agar, 10^7 CFU/ml, 37° C., 18 hours, read-out: Minimal Inhibitory Concentration(MIC)
Method: as §1, §2
(§4) The test used twenty kinds of standard test strains which induced urinary tract infections, respiratory organ infections, skin soft tissue infections, plasma infections, gastrointestinal infections, central nervous system infections, most of which produce β-lactamase.

[6] = tested on: Pseudomonas aeruginosa 1771; test: MIC, standard strain 14; assay type: cell-based; conditions: Pseudomonas aeruginosa; P. aeruginosa 1771; two-fold dilution, Muller Hinton agar, 10^7 CFU/ml, 37° C., 18 hours; read-out: Minimal Inhibitory Concentration(MIC)
Method: as §1, §2, §3
14. Pseudomonas aeruginosa 1771

[7] = tested on: Pseudomonas aeruginosa 1592 E; test: MIC, standard strain 13; assay type: cell-based; conditions: P. aeruginosa 1592 E, two-fold dilution, Muller Hinton agar, 10^7 CFU/ml, 37° C., 18 hours, read-out: Minimal Inhibitory Concentration(MIC)
Method: as §1, §2, §3
13. Pseudomonas aeruginosa 1592 E

D StreptococcusII = test: MIC, clinically separated strains; assay type: cell-based, D Streptococcus; conditions: Streptococcus, 18 h; for MIC: read-out: range of MIC
Method: as §2

[8] = tested on: Streptococcus pyogens A77; test: antibiotic activity against systemic infection in mice; assay type: in vivo; conditions: A77, im, bacteria intraperitoneally, intramuscular injection, 5 to 0.078 mg/kg, probit method (confidence limit), read-out: PD50
Method: In order to illustrate clinical effectiveness of the compounds of the present invention more specifically, the stability to β-lactamase and antibiotic activity against systemic infection, were tested, and the results are shown in Table 4 and 5, respectively.
Antibiotic activity against systematic infection was tested by using mice: that is, 0.3 ml of a strain solution containing fatal dose of bacteria in 0.3 ml was administered to mice intraperitoneally; and then, the test antibiotics were administered intramuscularly in an amount of 5 to 0.078 mg/kg. PD50 was calculated by probit method.

[9] = tested on: Streptococcus pyogenes A 308; test: MIC, standard strain 1; assay type: cell-based; conditions: A308, S. pyogenes A 308, two-fold dilution, Muller Hinton agar, 10^7 CFU/ml, 37° C., 18 hours, read-out: Minimal Inhibitory Concentration(MIC)
Method: as §1, §2, §3
1. Streptococcus pyogenes A 308

Escherichia coli 1507 E = test: MIC, standard strain 11; assay type: cell-based; conditions: E. coli 1507 E, two-fold dilution, Muller Hinton agar, 10^7 CFU/ml, 37° C., 18 hours, read-out: Minimal Inhibitory Concentration(MIC)
Method: as §1, §2, §4

Pseudomonas = conditions: compared with DQ-2556 or ceftazidime; cited from earlier work
[10] = tested on: Gram-negative and Gram-positive bacteria; conditions: cited from earlier work
[11] = Staphylococcus aureus, MRSA, 18 h, 17 clinical strains

| Structure (SMILES) | MIC [1] | MIC [2] | MIC [3] | MIC50 (Streptococcus I) | MIC90 (Streptococcus I) | antibiotic activities against MRSA(Yonsei Univ.), in words (MRSA(Yonsei Univ.)) | MIC50 (MRSA(Yonsei Univ.); [11]) | MIC90 (MRSA(Yonsei Univ.); [11]) | MIC [4] | MIC [5] | MIC (Salmonella typhimurium) | MIC (Escherichia coli DC 0) | MIC [6] | MIC [7] | MIC50 (D StreptococcusII; 19 clinical strains) | MIC90 (D StreptococcusII; 19 clinical strains) | MIC [9] | MIC (Escherichia coli 1507 E) | further results |
| --- | --- | --- | --- | --- | --- | --- | --- | --- | --- | --- | --- | --- | --- | --- | --- | --- | --- | --- | --- |
| CO/N=C(\C(=O)N[C@@H]1C(=O)N2C(C(=O)[O-])=C(C[n+]3ccc(C(N)=O)c4c3CCC4)CS[C@H]12)c1csc(N)n1 [Example 3] | 1560 µg/mL (≈ 2800 µM) | 2 µg/mL (≈ 3.59 µM) | 7 µg/mL (≈ 12.6 µM) | 0.025 µg/mL (≈ 0.0448 µM) | 12.5 µg/mL (≈ 22.4 µM) | unexpectedly potent antibiotic activities | 12.5 µg/mL (≈ 22.4 µM) | 100 µg/mL (≈ 179 µM) | 195 µg/mL (≈ 350 µM) | 391 µg/mL (≈ 701 µM) | 25 µg/mL (≈ 44.8 µM) | 25 µg/mL (≈ 44.8 µM) | 391 µg/mL (≈ 701 µM) | 1560 µg/mL (≈ 2800 µM) | 25 µg/mL (≈ 44.8 µM) | 100 µg/mL (≈ 179 µM) | 0.7 µg/mL (≈ 1.26 µM) | 25 µg/mL (≈ 44.8 µM) | LD50 (acute toxicity test): > 3000 mg/kg; range of MIC (Streptococcus I): 0.007-25.000; range of MIC (MRSA(Yonsei Univ.); 17 clinical strains): 0.013-100.000; MIC (D StreptococcusII; 19 clinical strains): 6.25 to 100 µg/mL (≈ 11.2 to 179 µM); ED50 [8]: 0.29 mg/kg |
| CO/N=C(\C(=O)N[C@@H]1C(=O)N2C(C(=O)[O-])=C(C[n+]3cccc4c3CCC4)CS[C@H]12)c1csc(N)n1 [cefpirome, reference compound] | 3120 µg/mL (≈ 6070 µM) | 98 µg/mL (≈ 190 µM) | 13 µg/mL (≈ 25.3 µM) | 0.025 µg/mL (≈ 0.0486 µM) | 12.5 µg/mL (≈ 24.3 µM) | shows resistance to cefpirome | 100 µg/mL (≈ 194 µM) | 100 µg/mL (≈ 194 µM) | 195 µg/mL (≈ 379 µM) | 13 µg/mL (≈ 25.3 µM) | 25 µg/mL (≈ 48.6 µM) | 49 µg/mL (≈ 95.2 µM) | 391 µg/mL (≈ 760 µM) | 1560 µg/mL (≈ 3040 µM) | 50 µg/mL (≈ 97.2 µM) | 100 µg/mL (≈ 194 µM) | 4 µg/mL (≈ 7.77 µM) | 75 µg/mL (≈ 146 µM) | activity against Pseudomonas, in words (Pseudomonas): inferior to ceftazidime; MIC (MRSA(Yonsei Univ.); Staphylococcus aureus, MRSA, 18 h, read-out: range of MIC, 17 clinical strains): 100 µg/mL (≈ 194 µM); MIC (D StreptococcusII): 6.25 to 100 µg/mL (≈ 12.1 to 194 µM); activity against Gram-negative and Gram-positive bacteria, in words [10]: improved activity against Gram-negative and Gram-positive bacteria |
